The record followed here is patent US20230158034A1, “CO-TREATMENT WITH CDK4/6 AND CDK2 INHIBITORS TO SUPPRESS TUMOR ADAPTATION TO CDK2 INHIBITORS” (Pfizer Inc., priority 2020, published 2023).

The subject of series [1] is CDK2 activity (DHB sensor phosphorylation). Briefly: DHB-based CDK2 activity sensor, single-cell time-lapse imaging (C/N ratio). Details: species or system human. The text has this: The DHB sensor is localized to the nucleus when it is not phosphorylated. Upon phosphorylation, the nuclear localization signal is masked, the nuclear export signal is unmasked, and the sensor steadily translocates to the cytoplasm in response to increasing CDK2 activity (FIG. 1A). Thus, kinase activity can be quantified by the ratio of the cytoplasmic to nuclear fluorescence intensity (C/N ratio) of the DHB sensor. […] Asynchronously cycling cells were first imaged for approximately 20 hr in the absence of drug to establish the cell-cycle phase of each cell; the movie was then paused to add drug, and then imaging was continued for another 1-2 days. Because the cells were cycling asynchronously, all cell-cycle phases with one drug treatment were sampled. This allowed the present inventors to computationally isolate traces for cells that received drug at any time since the completion of anaphase.
Cells were seeded at least 24 hr prior to imaging in phenol-red-free full-growth medium in glass-bottom 96-well plates (CellVis P96-1.5H-N) that were coated with collagen prior to seeding. The seeding density was chosen such that the cells would remain sub-confluent until the end of the imaging period. Cells were first imaged for 16-20 hr in full-growth media without drug. The movie was then briefly paused and the full-growth media was replaced with full-growth media containing drug at the desired concentration. The plate was then re-inserted into the microscope and aligned to its prior position and imaging was continued for an additional 24-48 hr. Images were acquired every 12 min (for MCF10A or RPE-hTERT) or every 20 min (for MCF7 or OVCAR3) on a Nikon Eclipse Ti or Ti2 microscope with a 10×0.45 NA objective in a humidified, 37° C. chamber at 5% CO2. Exposure times for all movies for all channels were kept under 500 ms per timepoint to minimize phototoxicity. Cell tracking was performed using published MATLAB scripts (Cappell et al., 2016), as described previously (Arora et al., 2017). The tracking code is available for download at https://github.com/scappell/Cell_tracking. Cell counts over time were obtained by counting the number of segmented nuclei in each frame of the movie.
Asynchronously cycling cells that divided and received drug treatments during the imaging period were initially segmented into categories based on the cells' time of anaphase relative to the time of drug addition. These cells were then additionally subcategorized based on their DHB cytoplasmic/nuclear (C/N) ratio after the mitotic event. C/N ratio was calculated by quantifying the ratio of cytoplasmic to nuclear mean DHB fluorescence, with the cytoplasmic component calculated as the mean of the top 50th percentile of a ring of pixels outside of the nuclear mask.
Cells were classified as CDK2^inc if the DHB C/N ratio was above 0.5 units 3 hr after anaphase, otherwise they were classified as CDK2^low. Figure legends indicate whether only CDK2^inc cells or whether all cells are plotted. The median of the single-cell traces in a subcategory was then used to create median trace with 95% confidence interval representative of the particular subcategory. All cell trace analysis was done using custom MATLAB scripts and code is available upon request.

The nature of series [2]: Half-life of PF3600 in cells. It is filed as in vitro ADME.
Series [3] concerns CDK2 T-loop phosphorylation, Cyclin E1, p21. Put plainly: Western blots of palbociclib-treated lung tumors. The note with it: palbociclib 70 mg/kg QD for 28 days. Type of series: in vivo, mouse. How it is done: To test the potential compensatory relationship between CDK2 and CDK4/6 in vivo, an established mouse lung tumor model driven by KRAS^G12V and TRP53 mutations was used. Kras^+/LSLG12V, Trp53^L/L mice intra-nasally infected with adenoviral particles encoding Cre recombinase developed lung tumors with a latency of 5 months. Once tumor development was detected by CT scans, animals were treated with either vehicle or palbociclib (70 mg/kg QD) for 28 days and tumor volumes were subsequently measured by CT scans at the end of the treatment period.
For western blots in FIG. 7B, protein extraction was performed in protein lysis buffer (50 mM Tris-HCl pH 7.4, 150 mM NaCl, 0.5% NP-40) supplemented with a cocktail of protease and phosphatase inhibitors (complete Mini, Roche, 11836153001; Phosphatase Inhibitor Cocktail 2 and 3, Sigma, P5726 and P0044). Protein concentrations were measured using Bradford (Bio-Rad) method. […] of protein extracts obtained from tumor tissue were separated on NUPAGE™ 4-12% Bis-Tris Midi gels (Invitrogen), transferred to a nitrocellulose membrane (GE Healthcare) and blotted with primary antibodies. Primary antibodies were detected with goat secondary antibodies directed against mouse or rabbit IgGs (HRP, Dako, and Alexa Fluor 680, Invitrogen) and visualized with ECL Western Blot detection solution (GE Healthcare).

Where [4] appears, read: PF3600, MCF10A, MCF7 and RPE-hTERT cells.

As usually defined, the half-life is the time in which the quantity being followed falls by half. A higher half-life goes with slow decline.

Each structure is given as a SMILES string.

For `C[C@@]1(O)CCC[C@H]1n1c(=O)c(C(F)F)cc2cnc(NC3CCN(S(C)(=O)=O)CC3)nc21` [PF3600, 6-(difluoromethyl)-8-[(1R,2R)-2-hydroxy-2-methylcyclopentyl]-2-{[1-(methylsulfonyl)-piperidin-4-yl]amino}pyrido[2,3-d]pyrimidin-7(8H)-one], the “DHB sensor phosphorylation behavior” value in series [1] (25 nM PF3600, MCF7) is listed as “drop-rebound behavior”. Besides, in series [1] (100 nM PF3600, MCF7), the “DHB sensor phosphorylation behavior” value was “brief rebound followed by long-lived suppression of DHB phosphorylation”. Also, the “cells that initially responded” value in series [1] (PF3600) stood at 100%. Besides, the “rebound of DHB sensor phosphorylation” value in series [1] (PF3600, OVCAR3 cells) is given as “did not rebound”. Also, in series [1] (setting [4]), the “onset of rebound in DHB sensor phosphorylation” value was in the range of 1 to 2 h and the “time until DHB sensor phosphorylation returned to pre-treatment levels” value was no more than 5 h. Further, in series [2], the half-life is roughly 30 h.

For the compound `CC(=O)c1c(C)c2cnc(Nc3ccc(N4CCNCC4)cn3)nc2n(C2CCCC2)c1=O` [palbociclib], in series [1] (1 μM palbociclib added 5 hr or later after anaphase/mitosis, MCF10A), the “effect on DHB sensor phosphorylation, cell-cycle progression, or the timing of mitosis” value was “no immediate effect”. For the same compound, in series [3], the “CDK2 T-loop phosphorylation and Cyclin E1 in tumors (western blot)” value was “upregulation of CDK2 T-loop phosphorylation and Cyclin E1”; the “p21 in tumors (western blot)” value is recorded as “significant downregulation of the CDK inhibitor p21”.
